# Source: patent US20060265780A1, “Interaction of glyphosate with photosystem II inhibitor herbicides as a selection tool for roundup ready events” (Monsanto Technology LLC, priority 2005, published 2006)
# Read-outs that look alike come from different tables or passages of the source.
# Experiments:
# Assay type in all cases: in vivo
# [1] = tested on: DKC 53-33 corn hybrid (NK 603 event); assay: Greenhouse glyphosate/PSII inhibitor injury assay, Example 2; settings: single application, treated at 2 leaves unfolded (GS 12)
# Description: (§1) Two corn seeds were planted one inch deep per 3.5×3.5 inch plastic pot filled with commercial potting mix (Redi-earth). The potting mix was supplemented with Osmacote™ 14-14-14 slow release fertilizer at 100 gm/ft3 to optimize growth. Pots were then placed in a greenhouse (25 C day/19 C night, 14 hour day) and water was supplied through subirrigation. Plants were allowed to grow to the stage where 3 leaves were unfolded (6-9 days after planting, approximate growth stage of GS 13) prior to the application of glyphosate and photosystem II inhibitor.
# (§2) Herbicide treatments consisted of application of glyphosate and PSII inhibitor. Application rates for glyphosate (Roundup UltraMAX, Monsanto, St. Louis) included: 840 gm/ha; 1680 gm/ha; and 3360 gm/ha (i.e., 0.75 lbs/A; 1.5 lbs/A; and 3.0 lbs/A). Application rates for linuron (Lorox, DuPont) included 56 gm/ha; 112 gm/ha; and 224 gm/ha. Application rates for metribuzin (Sencor, Bayer) included 56 gm/ha; 112 gm/ha; and 224 gm/ha. Treatments were broadcast applied in a research track sprayer utilizing an even flat fan spray tip. Plants were returned to the greenhouse following applications. Growth inhibition was measured 10 days after treatment (DAT). […] Growth reduction can be measured about 7-10 DAT by direct or visual estimation (0=no growth reduction, 100=complete growth reduction).
# (§3) Roundup Ready corn hybrids tested were RX 686Roundup Ready (GA 21 event) and DKC 53-33(NK 603 event). Growth of plant material and treatment regime was as described in Example 1, except plants were allowed to grow to the stage where 2 leaves were unfolded (approximately GS 12) prior to the application of glyphosate and photosystem II inhibitor. Growth inhibition was measured 10 days after treatment (DAT).
# [2] = tested on: RX 686 Roundup Ready corn hybrid (GA 21 event); assay: as above; settings: single application, treated at 2 leaves unfolded (GS 12)
# Description: as §1, §2, §3
# GA 21 corn event [3] = tested on: GA 21 corn event
# Description: (§4) The glyphosate tolerance of RoundUp Ready corn events NK 603 and GA 21 were characterized in field trials. Corn was planted in 36 inch rows in plots of 4 rows by 30 ft with the two center rows being harvested. The study comprised 22 locations with 4 replicates of each treatment per location and the data were pooled across locations. Corn plants were treated with glyphosate at two consecutive developmental ages of V4 and V8. Glyphosate application rates were 0.75, 1.5, and 2.23 pounds per acre (lbs/A). Application volume was 10 gallons/acre. […] Data for chlorosis, malformed leaves, and growth reduction was collected at 22 locations. Also, at harvest of mature corn plants, the yield percentage and grain moisture percentage were assessed. Data for yield and grain moisture was collected at harvest at 19 locations and expressed as the mean percentage yield or moisture with respect to controls.
# NK 603 corn event [4] = tested on: NK 603 corn event
# Description: as §4
# GA 21 corn event [5] = settings: for % Yield / % Grain Moisture: harvest, 19 locations
# NK 603 corn event [6] = tested on: NK 603 corn event; remark: listed apart in the source
# [7] = glyphosate rate 0.75/0.75 (lbs/A) at V4/V8, 22 locations
# [8] = glyphosate rate 0.75/0.75 at V4/V8, mean with respect to controls, harvest, 19 locations
# [9] = glyphosate rate 1.5/1.5 (lbs/A) at V4/V8, 22 locations
# [10] = glyphosate rate 1.5/1.5 at V4/V8, locations with injury greater than 9%
# [11] = glyphosate rate 2.25/2.25 at V4/V8, locations with injury greater than 9%
# [12] = NK 603, glyphosate rate 0.75/0.75 (lbs/A) at V4/V8, 22 locations
# [13] = NK 603, glyphosate rate 1.5/1.5 (lbs/A) at V4/V8, 22 locations
# [14] = NK 603, glyphosate rate 1.5/1.5 at V4/V8, mean with respect to controls, harvest, 19 locations
# [15] = glyphosate rate 2.25/2.25 (lbs/A) at V4/V8, 22 locations
# [16] = glyphosate rate 2.25/2.25 at V4/V8, mean with respect to controls
# [17] = glyphosate rate 2.25/2.25 at V4/V8, mean with respect to controls, harvest, 19 locations
smiles,measurement,setting,value
CSc1nnc(C(C)(C)C)c(=O)n1N [metribuzin],crop injury,[1],did not produce any discernable crop injury
same,crop injury,[2],did not produce any discernable crop injury
CON(C)C(=O)Nc1ccc(Cl)c(Cl)c1 [linuron],crop injury,[1],did not produce any discernable crop injury
same,crop injury,[2],did not produce any discernable crop injury
"O=C(O)CNCP(=O)(O)O [glyphosate, N-phosphonomethylglycine]",crop injury,[1],did not produce any discernable crop injury
same,crop injury,[2],did not produce any discernable crop injury
same,% Chlorosis 10 DAT: number of locations exhibiting injury greater than 9%,GA 21 corn event [3]; [7],None
same,% Malform 10 DAT: number of locations exhibiting injury greater than 9%,GA 21 corn event [3]; [7],None
same,% Grain Moisture,GA 21 corn event [3]; [8],100.7%
same,% Growth Reduction 30 DAT: number of locations exhibiting injury greater than 9%,GA 21 corn event [3]; [9],1
same,% Growth Reduction 10 DAT: percentage range of observed injury,GA 21 corn event [3]; [10],10-14%
same,% Growth Reduction 30 DAT: percentage range of observed injury,GA 21 corn event [3]; [10],11%
same,% Yield,"GA 21 corn event [3]; glyphosate rate 1.5/1.5 at V4/V8, mean with respect to controls, harvest, 19 locations",97.8%
same,% Chlorosis 10 DAT: percentage range of observed injury,GA 21 corn event [3]; [11],11-21%
same,% Growth Reduction 30 DAT: percentage range of observed injury,GA 21 corn event [3]; [11],10-13%
same,% Chlorosis 10 DAT: number of locations exhibiting injury greater than 9%,NK 603 corn event [4]; [12],None
same,% Malform 10 DAT: number of locations exhibiting injury greater than 9%,NK 603 corn event [4]; [12],None
same,% Yield,"NK 603 corn event [4]; NK 603, glyphosate rate 0.75/0.75 at V4/V8, mean with respect to controls, harvest, 19 locations",103.3%
same,% Chlorosis 10 DAT: number of locations exhibiting injury greater than 9%,NK 603 corn event [4]; [13],None
same,% Growth Reduction 30 DAT: number of locations exhibiting injury greater than 9%,NK 603 corn event [4]; [13],None
same,% Malform 10 DAT: percentage range of observed injury,"NK 603 corn event [4]; NK 603, glyphosate rate 1.5/1.5 at V4/V8, locations with injury greater than 9%",10-11%
same,% Grain Moisture,NK 603 corn event [4]; [14],101.7%
same,% Yield,NK 603 corn event [4]; [14],99.4%
same,injury,"NK 603 corn event [4]; glyphosate applications up to 3360 gm/ha, even applied sequentially, NK 603 event (e.g. DKC 53-33 hybrid)",no injury
same,% Growth Reduction 10 DAT: number of locations exhibiting injury greater than 9%,GA 21 corn event [5]; [7],None
same,% Growth Reduction 30 DAT: number of locations exhibiting injury greater than 9%,GA 21 corn event [5]; [7],None
same,% Yield,"GA 21 corn event [5]; glyphosate rate 0.75/0.75 at V4/V8, mean with respect to controls",101.8%
same,% Chlorosis 10 DAT: number of locations exhibiting injury greater than 9%,GA 21 corn event [5]; [9],3
same,% Growth Reduction 10 DAT: number of locations exhibiting injury greater than 9%,GA 21 corn event [5]; [9],5
same,% Malform 10 DAT: number of locations exhibiting injury greater than 9%,GA 21 corn event [5]; [9],5
same,% Chlorosis 10 DAT: percentage range of observed injury,GA 21 corn event [5]; [10],10-14%
same,% Malform 10 DAT: percentage range of observed injury,GA 21 corn event [5]; [10],11-16%
same,% Grain Moisture,"GA 21 corn event [5]; glyphosate rate 1.5/1.5 at V4/V8, mean with respect to controls",101.0%
same,% Chlorosis 10 DAT: number of locations exhibiting injury greater than 9%,GA 21 corn event [5]; [15],3
same,% Growth Reduction 10 DAT: number of locations exhibiting injury greater than 9%,GA 21 corn event [5]; [15],7
same,% Growth Reduction 30 DAT: number of locations exhibiting injury greater than 9%,GA 21 corn event [5]; [15],4
same,% Malform 10 DAT: number of locations exhibiting injury greater than 9%,GA 21 corn event [5]; [15],6
same,% Growth Reduction 10 DAT: percentage range of observed injury,GA 21 corn event [5]; [11],11-30%
same,% Malform 10 DAT: percentage range of observed injury,GA 21 corn event [5]; [11],10-33%
same,% Grain Moisture,GA 21 corn event [5]; [16],101.6%
same,% Yield,GA 21 corn event [5]; [16],90.8%
same,% Growth Reduction 10 DAT: number of locations exhibiting injury greater than 9%,NK 603 corn event [6]; [7],None
same,% Growth Reduction 30 DAT: number of locations exhibiting injury greater than 9%,NK 603 corn event [6]; [7],None
same,% Grain Moisture,NK 603 corn event [6]; [8],100.2%
same,% Growth Reduction 10 DAT: number of locations exhibiting injury greater than 9%,NK 603 corn event [6]; [9],None
same,% Malform 10 DAT: number of locations exhibiting injury greater than 9%,NK 603 corn event [6]; [9],3
same,% Chlorosis 10 DAT: number of locations exhibiting injury greater than 9%,NK 603 corn event [6]; [15],3
same,% Growth Reduction 10 DAT: number of locations exhibiting injury greater than 9%,NK 603 corn event [6]; [15],3
same,% Growth Reduction 30 DAT: number of locations exhibiting injury greater than 9%,NK 603 corn event [6]; [15],2
same,% Malform 10 DAT: number of locations exhibiting injury greater than 9%,NK 603 corn event [6]; [15],6
same,% Chlorosis 10 DAT: percentage range of observed injury,NK 603 corn event [6]; [11],11-19%
same,% Growth Reduction 10 DAT: percentage range of observed injury,NK 603 corn event [6]; [11],10-19%
same,% Growth Reduction 30 DAT: percentage range of observed injury,NK 603 corn event [6]; [11],11-15%
same,% Malform 10 DAT: percentage range of observed injury,NK 603 corn event [6]; [11],11-19%
same,% Grain Moisture,NK 603 corn event [6]; [17],103.1%
same,% Yield,NK 603 corn event [6]; [17],96.6%
